Assay results: ChEMBL document CHEMBL1201861, “Genomics of Drug Sensitity in Cancer screening data, Wellcome Trust Sanger Institute”
pIC50: −log10 of the molar value.

Experiments:
Experiment in all cases: cells
MOLT-16 = type: functional, cell-based; conditions: Homo sapiens
Description: SANGER: Inhibition of human MOLT-16 cell growth in a cell viability assay.

SK-MEL-24 = type: functional, cell-based; conditions: Homo sapiens
Description: SANGER: Inhibition of human SK-MEL-24 cell growth in a cell viability assay.

KYSE-410 = type: functional, cell-based, Homo sapiens; conditions: Homo sapiens, KYSE-410
Description: SANGER: Inhibition of human KYSE-410 cell growth in a cell viability assay.

IST-MEL1 = type: functional, cell-based, Homo sapiens; conditions: Homo sapiens, IST-MEL1
Description: SANGER: Inhibition of human IST-MEL1 cell growth in a cell viability assay.

5637 = type: functional, cell-based, Homo sapiens; conditions: Homo sapiens
Description: SANGER: Inhibition of human 5637 cell growth in a cell viability assay.

NCI-H2452 = type: functional, cell-based, Homo sapiens; conditions: Homo sapiens, NCI-H2452
Description: SANGER: Inhibition of human NCI-H2452 cell growth in a cell viability assay.

HL-60 = type: functional, cell-based; conditions: Homo sapiens
Description: SANGER: Inhibition of human HL-60 cell growth in a cell viability assay.

KU812 cell line = type: functional, cell-based; conditions: Homo sapiens
Description: SANGER: Inhibition of human KU812 cell growth in a cell viability assay.

HO-1-N-1 = type: functional, cell-based, Homo sapiens; conditions: Homo sapiens, HO-1-N-1
Description: SANGER: Inhibition of human HO-1-N-1 cell growth in a cell viability assay.

HPAF-II = type: functional, cell-based, Homo sapiens; conditions: Homo sapiens, HPAF-II
Description: SANGER: Inhibition of human HPAF-II cell growth in a cell viability assay.

BT-20 = type: functional, cell-based, Homo sapiens; conditions: Homo sapiens, BT-20
Description: SANGER: Inhibition of human BT-20 cell growth in a cell viability assay.

T84 = type: functional, cell-based, Homo sapiens; conditions: Homo sapiens, T84
Description: SANGER: Inhibition of human T84 cell growth in a cell viability assay.

D283 Med = type: functional, cell-based, Homo sapiens; conditions: Homo sapiens, D283 Med
Description: SANGER: Inhibition of human D-283MED cell growth in a cell viability assay.

HOP-92 = type: functional, cell-based, Homo sapiens; conditions: Homo sapiens, HOP-92
Description: SANGER: Inhibition of human HOP-92 cell growth in a cell viability assay.

GI-1 = type: functional, cell-based, Homo sapiens; conditions: Homo sapiens, GI-1
Description: SANGER: Inhibition of human GI-1 cell growth in a cell viability assay.

SW1417 = type: functional, cell-based, Homo sapiens; conditions: Homo sapiens, SW1417
Description: SANGER: Inhibition of human SW1417 cell growth in a cell viability assay.

RH-1 = type: functional, cell-based, Homo sapiens; conditions: Homo sapiens, RH-1
Description: SANGER: Inhibition of human RH-1 cell growth in a cell viability assay.

KG-1 = type: functional, cell-based; conditions: Homo sapiens
Description: SANGER: Inhibition of human KG-1 cell growth in a cell viability assay.

SW780 = type: functional, cell-based, Homo sapiens; conditions: Homo sapiens, SW780
Description: SANGER: Inhibition of human SW780 cell growth in a cell viability assay.

MDA-MB-231 = type: functional, cell-based, Homo sapiens; conditions: Homo sapiens, MDA-MB-231
Description: SANGER: Inhibition of human MDA-MB-231 cell growth in a cell viability assay.

CHL-1 = type: functional, cell-based, Homo sapiens; conditions: Homo sapiens, CHL-1
Description: SANGER: Inhibition of human CHL-1 cell growth in a cell viability assay.

SK-OV-3 = type: functional, cell-based, Homo sapiens; conditions: Homo sapiens, SK-OV-3
Description: SANGER: Inhibition of human SK-OV-3 cell growth in a cell viability assay.

SW 954 = type: functional, cell-based, Homo sapiens; conditions: Homo sapiens, SW 954
Description: SANGER: Inhibition of human SW954 cell growth in a cell viability assay.

MFH-ino = type: functional, cell-based; conditions: Homo sapiens
Description: SANGER: Inhibition of human MFH-ino cell growth in a cell viability assay.

TE-5 = type: functional, cell-based, Homo sapiens; conditions: Homo sapiens, TE-5
Description: SANGER: Inhibition of human TE-5 cell growth in a cell viability assay.

MHH-NB-11 = type: functional, cell-based, Homo sapiens; conditions: Homo sapiens, MHH-NB-11
Description: SANGER: Inhibition of human MHH-NB-11 cell growth in a cell viability assay.

RPMI-7951 = type: functional, cell-based, Homo sapiens; conditions: Homo sapiens, RPMI-7951
Description: SANGER: Inhibition of human RPMI-7951 cell growth in a cell viability assay.

SK-N-FI = type: functional, cell-based, Homo sapiens; conditions: Homo sapiens, SK-N-FI
Description: SANGER: Inhibition of human SK-N-FI cell growth in a cell viability assay.

OVCAR-4 = type: functional, cell-based, Homo sapiens; conditions: Homo sapiens, OVCAR-4
Description: SANGER: Inhibition of human OVCAR-4 cell growth in a cell viability assay.

YKG-1 = type: functional, cell-based, Homo sapiens; conditions: Homo sapiens, YKG-1
Description: SANGER: Inhibition of human YKG-1 cell growth in a cell viability assay.

NCI-H69 = type: functional, cell-based; conditions: Homo sapiens
Description: SANGER: Inhibition of human NCI-H69 cell growth in a cell viability assay.

ML-2 = type: functional, cell-based; conditions: Homo sapiens
Description: SANGER: Inhibition of human ML-2 cell growth in a cell viability assay.

LB996-RCC = type: functional, cell-based; conditions: Homo sapiens
Description: SANGER: Inhibition of human LB996-RCC cell growth in a cell viability assay.

SW 962 = type: functional, cell-based, Homo sapiens; conditions: Homo sapiens, SW 962
Description: SANGER: Inhibition of human SW962 cell growth in a cell viability assay.

HSC-3 = type: functional, cell-based, Homo sapiens; conditions: Homo sapiens, HSC-3
Description: SANGER: Inhibition of human HSC-3 cell growth in a cell viability assay.

VA-ES-BJ = type: functional, cell-based, Homo sapiens; conditions: Homo sapiens, VA-ES-BJ
Description: SANGER: Inhibition of human VA-ES-BJ cell growth in a cell viability assay.

DBTRG-05MG = type: functional, cell-based, Homo sapiens; conditions: Homo sapiens, DBTRG-05MG
Description: SANGER: Inhibition of human DBTRG-05MG cell growth in a cell viability assay.

EW-11 = type: functional, cell-based, Homo sapiens; conditions: Homo sapiens, EW-11
Description: SANGER: Inhibition of human EW-11 cell growth in a cell viability assay.

EW-13 = type: functional, cell-based; conditions: Homo sapiens
Description: SANGER: Inhibition of human EW-13 cell growth in a cell viability assay.

NCI-H1304 = type: functional, cell-based; conditions: Homo sapiens
Description: SANGER: Inhibition of human NCI-H1304 cell growth in a cell viability assay.

SK-HEP1 = type: functional, cell-based, Homo sapiens, SK-HEP-1; conditions: Homo sapiens, SK-HEP1
Description: SANGER: Inhibition of human SK-HEP-1 cell growth in a cell viability assay.

BFTC-909 = type: functional, cell-based, Homo sapiens; conditions: Homo sapiens, BFTC-909
Description: SANGER: Inhibition of human BFTC-909 cell growth in a cell viability assay.

LB2518-MEL = type: functional, cell-based, Homo sapiens; conditions: Homo sapiens, LB2518-MEL
Description: SANGER: Inhibition of human LB2518-MEL cell growth in a cell viability assay.

GR-ST = type: functional, cell-based; conditions: Homo sapiens
Description: SANGER: Inhibition of human GR-ST cell growth in a cell viability assay.

BB49-HNC = type: functional, cell-based, Homo sapiens; conditions: Homo sapiens, BB49-HNC
Description: SANGER: Inhibition of human BB49-HNC cell growth in a cell viability assay.

ES5 = type: functional, cell-based, Homo sapiens; conditions: Homo sapiens, ES5
Description: SANGER: Inhibition of human ES5 cell growth in a cell viability assay.

MOLT-4 = type: functional, cell-based; conditions: Homo sapiens
Description: SANGER: Inhibition of human MOLT-4 cell growth in a cell viability assay.

RS4-11 = type: functional, cell-based; conditions: Homo sapiens
Description: SANGER: Inhibition of human RS4-11 cell growth in a cell viability assay.

T47D = type: functional, cell-based, Homo sapiens; conditions: Homo sapiens, T47D
Description: SANGER: Inhibition of human T47D cell growth in a cell viability assay.

KYSE-150 cell line = type: functional, cell-based, Homo sapiens; conditions: Homo sapiens, KYSE-150
Description: SANGER: Inhibition of human KYSE-150 cell growth in a cell viability assay.

QIMR-WIL = type: functional, cell-based; conditions: Homo sapiens
Description: SANGER: Inhibition of human QIMR-WIL cell growth in a cell viability assay.

NB7 = type: functional, cell-based; conditions: Homo sapiens
Description: SANGER: Inhibition of human NB7 cell growth in a cell viability assay.

## Cc1cnc(-c2cnc(NCCNc3ccc(C#N)cn3)nc2-c2ccc(Cl)cc2Cl)[nH]1 [LADUVIGLUSIB]
MOLT-16
  pIC50: < 5.59
SK-MEL-24
  pIC50: < 5.59
KYSE-410
  pIC50: < 5.59
IST-MEL1
  pIC50: < 5.59
5637
  pIC50: < 5.59
NCI-H2452
  pIC50: < 5.59
HL-60
  pIC50: < 5.59
KU812 cell line
  pIC50: < 5.59
HO-1-N-1
  pIC50: < 5.59
HPAF-II
  pIC50: < 5.59
BT-20
  pIC50: < 5.59
T84
  pIC50: < 5.59
D283 Med
  pIC50: < 5.59
HOP-92
  pIC50: < 5.59
GI-1
  pIC50: < 5.59
SW1417
  pIC50: < 5.59
RH-1
  pIC50: < 5.59
KG-1
  pIC50: < 5.59
SW780
  pIC50: < 5.59
MDA-MB-231
  pIC50: < 5.59
CHL-1
  pIC50: < 5.59
SK-OV-3
  pIC50: < 5.59
SW 954
  pIC50: < 5.59
MFH-ino
  pIC50: < 5.59
TE-5
  pIC50: < 5.59
MHH-NB-11
  pIC50: < 5.59
RPMI-7951
  pIC50: < 5.59
SK-N-FI
  pIC50: < 5.59
OVCAR-4
  pIC50: < 5.59
YKG-1
  pIC50: < 5.59
NCI-H69
  pIC50: < 5.59
ML-2
  pIC50: < 5.59
LB996-RCC
  pIC50: < 5.59
SW 962
  pIC50: < 5.59
HSC-3
  pIC50: < 5.59
VA-ES-BJ
  pIC50: < 5.59
DBTRG-05MG
  pIC50: < 5.59
EW-11
  pIC50: < 5.59
EW-13
  pIC50: < 5.59
NCI-H1304
  pIC50: < 5.59
SK-HEP1
  pIC50: < 5.59
BFTC-909
  pIC50: < 5.59
LB2518-MEL
  pIC50: < 5.59
GR-ST
  pIC50: < 5.59
BB49-HNC
  pIC50: < 5.59
ES5
  pIC50: < 5.59
MOLT-4
  pIC50: < 5.59
RS4-11
  pIC50: 5.71
T47D
  pIC50: < 5.59
KYSE-150 cell line
  pIC50: < 5.59
QIMR-WIL
  pIC50: < 5.59

## CN(Cc1cnc2nc(N)nc(N)c2n1)c1ccc(C(=O)N[C@@H](CCC(=O)O)C(=O)O)cc1 [METHOTREXATE]
MOLT-16
  pIC50: 7.94
SK-MEL-24
  pIC50: < 6.70
KYSE-410
  pIC50: < 6.70
IST-MEL1
  pIC50: 6.90
5637
  pIC50: < 6.70
NCI-H2452
  pIC50: < 6.70
HL-60
  pIC50: 7.61
HO-1-N-1
  pIC50: < 6.70
HPAF-II
  pIC50: < 6.70
BT-20
  pIC50: < 6.70
T84
  pIC50: < 6.70
D283 Med
  pIC50: < 6.70
HOP-92
  pIC50: < 6.70
GI-1
  pIC50: < 6.70
SW1417
  pIC50: < 6.70
RH-1
  pIC50: < 6.70
KG-1
  pIC50: < 6.70
SW780
  pIC50: 6.93
MDA-MB-231
  pIC50: < 6.70
CHL-1
  pIC50: < 6.70
SW 954
  pIC50: < 6.70
TE-5
  pIC50: < 6.70
MHH-NB-11
  pIC50: < 6.70
RPMI-7951
  pIC50: < 6.70
SK-N-FI
  pIC50: < 6.70
OVCAR-4
  pIC50: < 6.70
YKG-1
  pIC50: < 6.70
ML-2
  pIC50: 8.30
SW 962
  pIC50: < 6.70
NB7
  pIC50: < 6.70
HSC-3
  pIC50: < 6.70
VA-ES-BJ
  pIC50: < 6.70
DBTRG-05MG
  pIC50: 6.77
EW-11
  pIC50: < 6.70
EW-13
  pIC50: 7.14
NCI-H1304
  pIC50: < 6.70
SK-HEP1
  pIC50: < 6.70
BFTC-909
  pIC50: < 6.70
LB2518-MEL
  pIC50: < 6.70
GR-ST
  pIC50: 7.44
BB49-HNC
  pIC50: < 6.70
ES5
  pIC50: < 6.70
MOLT-4
  pIC50: 7.67
RS4-11
  pIC50: 8.15
T47D
  pIC50: < 6.70
KYSE-150 cell line
  pIC50: 6.94
QIMR-WIL
  pIC50: 6.86

## O=C(c1cc(Cc2n[nH]c(=O)c3ccccc23)ccc1F)N1CCN(C(=O)C2CC2)CC1 [OLAPARIB]
MOLT-16
  pIC50: < 5.30
SK-MEL-24
  pIC50: < 5.30
KYSE-410
  pIC50: < 5.30
IST-MEL1
  pIC50: < 5.30
5637
  pIC50: < 5.30
NCI-H2452
  pIC50: < 5.30
HL-60
  pIC50: < 5.30
KU812 cell line
  pIC50: < 5.30
HO-1-N-1
  pIC50: < 5.30
HPAF-II
  pIC50: < 5.30
BT-20
  pIC50: < 5.30
T84
  pIC50: < 5.30
D283 Med
  pIC50: < 5.30
HOP-92
  pIC50: < 5.30
GI-1
  pIC50: < 5.30
SW1417
  pIC50: < 5.30
RH-1
  pIC50: < 5.30
KG-1
  pIC50: < 5.30
SW780
  pIC50: < 5.30
MDA-MB-231
  pIC50: < 5.30
CHL-1
  pIC50: < 5.30
SW 954
  pIC50: < 5.30
TE-5
  pIC50: < 5.30
MHH-NB-11
  pIC50: < 5.30
RPMI-7951
  pIC50: < 5.30
SK-N-FI
  pIC50: < 5.30
OVCAR-4
  pIC50: < 5.30
YKG-1
  pIC50: < 5.30
NCI-H69
  pIC50: < 5.30
ML-2
  pIC50: 5.44
SW 962
  pIC50: < 5.30
NB7
  pIC50: < 5.30
HSC-3
  pIC50: < 5.30
VA-ES-BJ
  pIC50: < 5.30
DBTRG-05MG
  pIC50: < 5.30
EW-11
  pIC50: < 5.30
EW-13
  pIC50: < 5.30
NCI-H1304
  pIC50: < 5.30
SK-HEP1
  pIC50: < 5.30
BFTC-909
  pIC50: < 5.30
LB2518-MEL
  pIC50: < 5.30
GR-ST
  pIC50: < 5.30
BB49-HNC
  pIC50: < 5.30
ES5
  pIC50: 5.54
MOLT-4
  pIC50: < 5.30
RS4-11
  pIC50: < 5.30
T47D
  pIC50: < 5.30
KYSE-150 cell line
  pIC50: < 5.30
QIMR-WIL
  pIC50: < 5.30
